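96-well plates; 48 h exposure; 5 concentrations. Endpoints by linear interpolation between flanking doses. Not reached: highest tested concentration assigned. At the GI50, growth is halved.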 Calls of active or inactive are those of the source. Rule as the data show it: active = GI50 up to about 1.1 µM and inactive = higher.
Assays:
Experiment in all cases: DTP human tumour cell line panel, 48 h
A549 = system: A549
BT-549 = system: BT-549
DU-145 = system: DU-145
EKVX = system: EKVX
HCT-116 = system: HCT-116
HOP-62 = system: HOP-62
IGROV-1 = system: IGROV-1
MCF7 = system: MCF7
Malme-3M = system: Malme-3M
NCI-H226 = system: NCI-H226
NCI-H23 = system: NCI-H23
OVCAR-8 = system: OVCAR-8
PC-3 = system: PC-3
SK-MEL-28 = system: SK-MEL-28
SK-OV-3 = system: SK-OV-3
SN12C = system: SN12C
T47D = system: T47D
UACC-257 = system: UACC-257
UACC-62 = system: UACC-62
RXF 393 = system: RXF 393

Row | SMILES | GI50 (A549) | GI50 (BT-549) | GI50 (DU-145) | GI50 (EKVX) | GI50 (HCT-116) | GI50 (HOP-62) | GI50 (IGROV-1) | GI50 (MCF7) | GI50 (Malme-3M) | GI50 (NCI-H226) | GI50 (NCI-H23) | GI50 (OVCAR-8) | GI50 (PC-3) | GI50 (SK-MEL-28) | GI50 (SK-OV-3) | GI50 (SN12C) | GI50 (T47D) | GI50 (UACC-257) | GI50 (UACC-62) | GI50 (RXF 393)
1 | CCN(CC)C(=S)N/N=C/c1ccccn1 | 0.0239 µM (active) | 0.37 µM (active) | 0.154 µM (active) | < 0.01 µM (active) | < 0.01 µM (active) | < 0.01 µM (active) | < 0.01 µM (active) | < 0.01 µM (active) | 0.0205 µM (active) | < 0.0138 µM (active) | < 0.01 µM (active) | < 0.01 µM (active) | < 0.01 µM (active) | 0.187 µM (active) | < 0.0192 µM (active) | 0.0212 µM (active) | < 0.01 µM (active) | < 0.01 µM (active) | < 0.0328 µM (active) | –
2 | Nc1ccc2nc(-c3cccc(Cl)c3)cc(O)c2c1 | 6.15 µM (inactive) | 5.45 µM (inactive) | – | 42.6 µM (inactive) | – | 5.87 µM (inactive) | 29.3 µM (inactive) | 3.46 µM (inactive) | 3.26 µM (inactive) | – | 5.79 µM (inactive) | 18 µM (inactive) | 2.47 µM (inactive) | 7.91 µM (inactive) | 4.82 µM (inactive) | 8.38 µM (inactive) | 5.96 µM (inactive) | > 100 µM (inactive) | 3.14 µM (inactive) | –
3 | c1cc(-c2cscc2-c2ccsc2)cs1 | 43.6 µM (inactive) | 37.8 µM (inactive) | > 100 µM (inactive) | 41.3 µM (inactive) | 40.5 µM (inactive) | 26.5 µM (inactive) | 34.5 µM (inactive) | 30.5 µM (inactive) | – | – | 25.7 µM (inactive) | – | 27.5 µM (inactive) | 98.4 µM (inactive) | > 100 µM (inactive) | > 100 µM (inactive) | 69.7 µM (inactive) | 58.2 µM (inactive) | 47.3 µM (inactive) | 28.4 µM (inactive)
4 | COC(=O)C1(Cc2cccc(Cl)c2)CCCCCCN1C(=O)c1ccccc1 (stereo unspecified) | 14.5 µM (inactive) | 16.7 µM (inactive) | 19.3 µM (inactive) | 12 µM (inactive) | 13.1 µM (inactive) | 15.5 µM (inactive) | 19.1 µM (inactive) | 13.5 µM (inactive) | 12.2 µM (inactive) | 25.1 µM (inactive) | 17.2 µM (inactive) | 16.6 µM (inactive) | 4.98 µM (inactive) | 14.9 µM (inactive) | 19.2 µM (inactive) | 14.5 µM (inactive) | 14.4 µM (inactive) | > 10 µM (inactive) | 11.1 µM (inactive) | –
5 | CSC1=NC(C(N)=O)C(N)N1C (stereo unspecified) | > 100 µM (inactive) | > 100 µM (inactive) | > 100 µM (inactive) | > 100 µM (inactive) | > 100 µM (inactive) | > 100 µM (inactive) | > 100 µM (inactive) | – | > 100 µM (inactive) | > 100 µM (inactive) | > 100 µM (inactive) | > 100 µM (inactive) | > 100 µM (inactive) | > 100 µM (inactive) | > 100 µM (inactive) | > 100 µM (inactive) | > 100 µM (inactive) | > 100 µM (inactive) | > 100 µM (inactive) | > 100 µM (inactive)
6 | CCC(=O)O[C@H]1CC[C@H]2[C@@H]3CCC4=C/C(=N/NC(=O)c5cccc6c(=O)c7ccccc7[nH]c56)CC[C@]4(C)[C@H]3CC[C@]12C | > 25 µM (inactive) | > 25 µM (inactive) | – | > 25 µM (inactive) | – | > 25 µM (inactive) | > 25 µM (inactive) | > 25 µM (inactive) | – | > 25 µM (inactive) | > 25 µM (inactive) | > 25 µM (inactive) | > 25 µM (inactive) | > 25 µM (inactive) | > 25 µM (inactive) | > 25 µM (inactive) | > 25 µM (inactive) | > 25 µM (inactive) | > 25 µM (inactive) | > 25 µM (inactive)
7 | COc1cc(/C=C2\N=C(c3ccccc3)N(c3ccc(C(=O)c4ccccc4)cc3N3C(=O)/C(=C/c4ccc(O)c(OC)c4)N=C3c3ccccc3)C2=O)ccc1O | 11.4 µM (inactive) | 18.7 µM (inactive) | 17 µM (inactive) | 25.9 µM (inactive) | 5.62 µM (inactive) | 14.5 µM (inactive) | 7.35 µM (inactive) | 5.85 µM (inactive) | – | – | – | 12.7 µM (inactive) | 11.8 µM (inactive) | 21.2 µM (inactive) | 12.1 µM (inactive) | 17.9 µM (inactive) | 5.18 µM (inactive) | 16.8 µM (inactive) | 9.62 µM (inactive) | –
8 | O=C(O)c1cc2ccccc2oc1=O [COUMARIN-3-CARBOXYLIC ACID] | > 100 µM (inactive) | > 100 µM (inactive) | > 100 µM (inactive) | > 100 µM (inactive) | > 100 µM (inactive) | > 100 µM (inactive) | > 100 µM (inactive) | > 100 µM (inactive) | > 100 µM (inactive) | > 100 µM (inactive) | > 100 µM (inactive) | > 100 µM (inactive) | > 100 µM (inactive) | > 100 µM (inactive) | – | > 100 µM (inactive) | – | > 100 µM (inactive) | > 100 µM (inactive) | > 100 µM (inactive)

Source: ChEMBL document CHEMBL1201862, “PubChem BioAssay data set” (2004)
